Experimental data published in patent US20110263564A1, “PYRIDINE, BICYCLIC PYRIDINE AND RELATED ANALOGS AS SIRTUIN MODULATORS” (Sirtris Pharmaceuticals, Inc., priority 2008, published 2011).

Target: T1, SIRT1 (Homo sapiens, UniProt Q96EB6)
T1 sequence (Q96EB6 1-747): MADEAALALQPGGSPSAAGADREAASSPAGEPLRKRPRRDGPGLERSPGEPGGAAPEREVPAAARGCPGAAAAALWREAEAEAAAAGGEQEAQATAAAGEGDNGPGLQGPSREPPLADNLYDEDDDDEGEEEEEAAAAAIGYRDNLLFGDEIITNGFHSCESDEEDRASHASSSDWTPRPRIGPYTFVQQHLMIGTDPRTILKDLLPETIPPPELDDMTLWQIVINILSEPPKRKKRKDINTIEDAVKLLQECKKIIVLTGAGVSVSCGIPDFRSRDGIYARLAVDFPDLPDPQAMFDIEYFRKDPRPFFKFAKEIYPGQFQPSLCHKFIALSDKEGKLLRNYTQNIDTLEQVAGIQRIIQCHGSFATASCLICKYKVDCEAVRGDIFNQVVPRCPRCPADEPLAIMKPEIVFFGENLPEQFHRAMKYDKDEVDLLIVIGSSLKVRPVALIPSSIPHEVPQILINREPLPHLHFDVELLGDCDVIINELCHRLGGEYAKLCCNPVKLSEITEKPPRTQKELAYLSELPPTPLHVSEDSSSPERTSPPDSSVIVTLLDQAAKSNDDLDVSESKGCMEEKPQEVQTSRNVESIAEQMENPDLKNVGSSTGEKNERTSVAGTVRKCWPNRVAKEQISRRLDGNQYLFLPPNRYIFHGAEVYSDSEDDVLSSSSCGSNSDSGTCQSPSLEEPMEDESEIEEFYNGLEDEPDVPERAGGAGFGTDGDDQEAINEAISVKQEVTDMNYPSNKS
Test: Mass spectrometry based assay of SIRT1 activity (deacetylation of a p53-based acetylated peptide)
Assay type: biochemical
Conditions: 10 nM SIRT1, 0.5 μM peptide substrate, 120 μM βNAD+, 25 minutes at 25° C.; for Emax: read-out: % FOLD ACT. (percent maximum fold activation)
Source text: A mass spectrometry based assay was used to identify modulators of SIRT1 activity. The mass spectrometry based assay utilizes a peptide having 20 amino acid residues as follows: Ac-EE-K(biotin)-GQSTSSHSK(Ac)NleSTEG-K(5TMR)-EE-NH2 (SEQ ID NO: 1) wherein K(Ac) is an acetylated lysine residue and Nle is a norleucine. The peptide is labeled with the fluorophore 5TMR (excitation 540 nm/emission 580 nm) at the C-terminus. The sequence of the peptide substrate is based on p53 with several modifications. In addition, the methionine residue naturally present in the sequence was replaced with the norleucine because the methionine may be susceptible to oxidation during synthesis and purification.
The mass spectrometry assay is conducted as follows: 0.5 μM peptide substrate and 120 μM βNAD^+ is incubated with 10 nM SIRT1 for 25 minutes at 25° C. in a reaction buffer (50 mM Tris-acetate pH 8, 137 mM NaCl, 2.7 mM KCl, 1 mM MgCl2, 5 mM DTT, 0.05% BSA). Test compounds may be added to the reaction as described above. […] After the 25 minute incubation with SIRT1, 10 μL of 10% formic acid is added to stop the reaction. Reactions are sealed and frozen for later mass spec analysis. Determination of the mass of the substrate peptide allows for precise determination of the degree of acetylation (i.e. starting material) as compared to deacetylated peptide (product).
A control for inhibition of sirtuin activity is conducted by adding 1 μL of 500 mM nicotinamide as a negative control at the start of the reaction (e.g., permits determination of maximum sirtuin inhibition). A control for activation of sirtuin activity is conducted using 10 nM of sirtuin protein, with 1 μL of DMSO in place of compound, to determine the amount of deacetylation of the substrate at a given timepoint within the linear range of the assay. This timepoint is the same as that used for test compounds and, within the linear range, the endpoint represents a change in velocity.
For the above assay, SIRT1 protein was expressed and purified as follows. […] The protein was expressed by induction with 1 mM IPTG as an N-terminal His-tag fusion protein at 18° C. overnight and harvested at 30,000×g. Cells were lysed with lysozyme in lysis buffer (50 mM Tris-HCl, 2 mM Tris[2-carboxyethyl]phosphine (TCEP), 10 μM ZnCl2, 200 mM NaCl) and further treated with sonication for 10 min for complete lysis. The protein was purified over a Ni-NTA column (Amersham) and fractions containing pure protein were pooled, concentrated and run over a sizing column (Sephadex S200 26/60 global). The peak containing soluble protein was collected and run on an Ion-exchange column (MonoQ). Gradient elution (200 mM-500 mM NaCl) yielded pure protein. This protein was concentrated and dialyzed against dialysis buffer (20 mM Tris-HCl, 2 mM TCEP) overnight. The protein was aliquoted and frozen at −80° C. until further use.
Sirtuin modulating compounds that activated SIRT1 were identified using the assay described above and are shown below in Table 1 for compounds of Formula (III)). The EC1.5 values represent the concentration of test compounds that result in 150% activation of SIRT1. The EC1.5 values for the activating compounds in Table 1 are represented by A (EC1.5<10.0 μM), B (EC1.5 10-25 μM), C (EC1.5>25 μM). The percent maximum fold activation is represented by A (Fold activation>200%) or B (Fold Activation<200%); “NT” means not tested; “ND” mean not determinable.

Row | Structure (SMILES) | EC1.5 (concentration of test compound that results in 150% activation of SIRT1) | Emax [%]
1 | Cc1cncc(-c2ccc3c(n2)C(NC(=O)c2cnccn2)CCC3)c1 (stereo not drawn) [Compound 200, N-(2-(5-methylpyridin-3-yl)-5,6,7,8-tetrahydroquinolin-8-yl)pyrazine-2-carboxamide] | C (EC1.5>25 μM) | 
2 | CC(C)c1cccc(-c2cccc(C(C)NC(=O)c3cscn3)n2)c1 (stereo not drawn) [Compound 201] | C (EC1.5>25 μM) | < 200
3 | CC(C)c1cccc(-c2cccc(C(C)NC(=O)c3cnccn3)n2)c1 (stereo not drawn) [Compound 202] | C (EC1.5>25 μM) | < 200
4 | CC(NC(=O)c1cscn1)c1cccc(-c2cccc(C(F)(F)F)c2)n1 (stereo not drawn) [Compound 203] | B (EC1.5 10-25 μM) | < 200
5 | CC(NC(=O)c1cnccn1)c1cccc(-c2cccc(C(F)(F)F)c2)n1 (stereo not drawn) [Compound 204, N-(1-(6-(3-(trifluoromethyl)phenyl)pyridin-2-yl)ethyl)pyrazine-2-carboxamide] | B (EC1.5 10-25 μM) | > 200
6 | O=C(NC1CCCc2ccc(-c3cccc(C(F)(F)F)c3)nc21)c1cscn1 (stereo not drawn) [Compound 205] | C (EC1.5>25 μM) | < 200
7 | O=C(NC1CCCc2ccc(-c3cccc(C(F)(F)F)c3)nc21)c1cnccn1 (stereo not drawn) [Compound 206, N-(2-(3-(trifluoromethyl)phenyl)-5,6,7,8-tetrahydroquinolin-8-yl)pyrazine-2-carboxamide] | A (EC1.5<10.0 μM) | > 200
8 | CC(NC(=O)c1cnccn1)c1cccc(-c2cccc(OC(F)(F)F)c2)n1 (stereo not drawn) [Compound 207] | B (EC1.5 10-25 μM) | > 200
9 | CC(C(=O)Nc1cccnc1)c1cccc(-c2cccc(C(F)(F)F)c2)n1 (stereo not drawn) [Compound 210] | C (EC1.5>25 μM) | 
10 | CC(NC(=O)c1cnccn1)c1cccc(-c2ccccc2)n1 (stereo not drawn) [Compound 211] | C (EC1.5>25 μM) | 
11 | CC(NC(=O)c1cccnc1)c1cccc(-c2cccc(C(F)(F)F)c2)n1 (stereo not drawn) [Compound 212] | A (EC1.5<10.0 μM) | > 200
12 | CC(NC(=O)c1cnccn1)c1cccc(-c2cccnc2)n1 (stereo not drawn) [Compound 213] | C (EC1.5>25 μM) | 
13 | CC(C(=O)Nc1cnccn1)c1cccc(-c2cccc(C(F)(F)F)c2)n1 (stereo not drawn) [Compound 214, N-2-pyrazinyl-2-{6-[3-(trifluoromethyl)phenyl]-2-pyridinyl}propanamide] | C (EC1.5>25 μM) | 
14 | CC(NC(=O)c1ccccc1)c1cccc(-c2cccc(C(F)(F)F)c2)n1 (stereo not drawn) [Compound 215] | C (EC1.5>25 μM) | 
15 | CC(NC(=O)c1cccnc1)c1cccc(-c2cccc(C(F)(F)F)c2)n1 (stereo not drawn) [Compound 216] | C (EC1.5>25 μM) | 
16 | CC(NC(=O)c1ccccc1)c1cccc(-c2ccccc2)n1 (stereo not drawn) [Compound 217] | C (EC1.5>25 μM) | 
17 | CC(NC(=O)c1cccnc1)c1cccc(-c2cccc(OC(F)(F)F)c2)n1 (stereo not drawn) [Compound 218] | C (EC1.5>25 μM) | 

Row | Structure (SMILES) | EC1.5 (concentration of test compound that results in 150% activation of SIRT1) | Emax [%]
18 | CC(NC(=O)c1cccc(CN2CCCC2)n1)c1cccc(-c2cccc(C(F)(F)F)c2)n1 (stereo not drawn) [Compound 219] | C (EC1.5>25 μM) | 
19 | CC(NC(=O)c1cccc(CN2CCCC2)n1)c1cccc(-c2cccnc2)n1 (stereo not drawn) [Compound 220] | C (EC1.5>25 μM) | 
20 | CC(C(=O)Nc1nccs1)c1cccc(-c2cccc(C(F)(F)F)c2)n1 (stereo not drawn) [Compound 221] | C (EC1.5>25 μM) | 
21 | O=C(NC1CCOc2ccc(-c3cccc(C(F)(F)F)c3)nc21)c1cccc(N2CCOCC2)n1 (stereo not drawn) [Compound 222, 6-morpholino-N-(6-(3-(trifluoromethyl)phenyl)-3,4-dihydro-2H-pyrano[3,2-b]pyridin-4-yl)picolinamide] | A (EC1.5<10.0 μM) | > 200
22 | O=C(NC1CCOc2ccc(-c3cccc(C(F)(F)F)c3)nc21)c1ccnc(CN2CCOCC2)c1 (stereo not drawn) [Compound 223] | C (EC1.5>25 μM) | 
23 | O=C(NC1CCOc2ccc(-c3cccc(C(F)(F)F)c3)nc21)c1cnccn1 (stereo not drawn) [Compound 224] | C (EC1.5>25 μM) | 
24 | O=C(NC1CCCc2ccc(-c3cccc(C(F)(F)F)c3)nc21)c1ccc(F)c(Cl)c1 (stereo not drawn) [Compound 225] | C (EC1.5>25 μM) | 
25 | O=C(NC1CCCc2ccc(-c3cccc(C(F)(F)F)c3)nc21)c1cccc2c1OC(F)(F)O2 (stereo not drawn) [Compound 226] | C (EC1.5>25 μM) | 
26 | Cc1cc(C(=O)NC2CCCc3ccc(-c4cccc(C(F)(F)F)c4)nc32)n(C)n1 (stereo not drawn) [Compound 227] | A (EC1.5<10.0 μM) | > 200
27 | O=C(NC1CCCc2ccc(-c3cccc(C(F)(F)F)c3)nc21)c1cc[nH]n1 (stereo not drawn) [Compound 229] | B (EC1.5 10-25 μM) | < 200
28 | O=C(NC1CCCc2ccc(-c3cccc(C(F)(F)F)c3)nc21)c1ccno1 (stereo not drawn) [Compound 230] | C (EC1.5>25 μM) | 
29 | O=C(NC1CCCc2ccc(-c3cccc(C(F)(F)F)c3)nc21)c1ccccn1 (stereo not drawn) [Compound 231] | A (EC1.5<10.0 μM) | > 200
30 | O=C(NC1CCCc2ccc(-c3cccc(C(F)(F)F)c3)nc21)c1cccnc1 (stereo not drawn) [Compound 232] | C (EC1.5>25 μM) | < 200
31 | O=C(NC1CCCc2ccc(-c3cccc(C(F)(F)F)c3)nc21)c1cncnc1 (stereo not drawn) [Compound 233] | C (EC1.5>25 μM) | 
32 | Cc1cnc(C(=O)NC2CCCc3ccc(-c4cccc(C(F)(F)F)c4)nc32)cn1 (stereo not drawn) [Compound 234] | A (EC1.5<10.0 μM) | > 200
33 | O=C(NC1CCCc2ccc(-c3cccc(C(F)(F)F)c3)nc21)c1cccc(N2CCCC2)n1 (stereo not drawn) [Compound 235] | A (EC1.5<10.0 μM) | < 200
